{"source": "paper PMC8708875", "about": "(Pharmaceutics, 2021)", "tested_on": "Erk 1/2 phosphorylation (pErk)", "experiment": "Erk phosphorylation by Western blotting in differentiated C2C12 cells", "format": "cell-based, mouse", "details": "peptides 100 µM, insulin 100 nM, Western blot, three independent experiments", "protocol": "C2C12 cells were used as a well-described model of skeletal muscle to evaluate the effect of peptides in gene expression, cell signaling, and glucose uptake. These cells were kindly provided by Prof. Patricia Brum, School of Physical Education and Prof. Anselmo Moriscot, Biomedical Science Institute, University of São Paulo, São Paulo, Brazil. C2C12 cells were cultured and maintained in high glucose Dulbecco’s modified Eagle’s medium (DMEM; Thermo Fisher Scientific, São Paulo, SP, Brazil) supplemented with 10% fetal bovine serum (FBS), 100 U/mL penicillin, and […] streptomycin in a humidified atmosphere of 5% CO2 at 37 °C. The cells were used in low pass (between passages 2 and 4) for all experiments to maintain the potential for differentiation of cultures. […]\nWestern blotting experiments were performed to evaluate the expression levels of specific proteins. […] Western blot bands were visualized with Super-Signal West Pico Chemiluminescent substrate (Thermo Scientific) using the ChemiDoc™ MP Imaging System (BioRad, Hercules, CA, USA), and quantified using ImageJ 1.49 software. All results are expressed as the means ± standard error of the mean (SEM). […] Data were statistically analyzed with GraphPad Prism software (GraphPad Software Inc, San Diego, CA, USA). […]", "data": [{"substance": "LASVSTVLTSKYR [Ric4, intracellular peptide derived from hemoglobin alpha subunit, last 13 C-terminal amino acids]", "values": [{"measurement": "phosphorylation of Erk (pErk over total Erk)", "result": "activated"}]}, {"substance": "Insulin", "values": [{"measurement": "phosphorylation of Erk (pErk over total Erk)", "result": "increased"}]}]}
